The source of these data is ChEMBL document CHEMBL1212791 (Antimicrob Agents Chemother, 2010).

Type in all cases: ADME, organism-based
The nature of data set [1]: Tmax in liver transplant patient with end-stage liver disease at 200 mg/kg, po bid. Further details: dose 200 mg/kg, route oral. The settings on record: human, in vivo.
Data set [2] can be described thus: Terminal disposition rate in liver transplant patient with end-stage liver disease at 200 mg/kg, po bid. Further details: dose 200 mg/kg, route oral. The conditions noted are these: human, in vivo, read-out: Activity (converted).
Data set [3] deals with Homo sapiens. Kind of data set: Clast in liver transplant patient with end-stage liver disease at 200 mg/kg, po bid. Further details: dose 200 mg/kg, route oral. The conditions noted are these: in vivo.
The nature of data set [4]: Cmax in liver transplant patient with end-stage liver disease at 200 mg/kg, po bid. Further details: dose 200 mg/kg, route oral. The settings on record: human, in vivo.
For data set [5], the system named is Homo sapiens. Kind of data set: Plasma concentration in liver transplant patient with end-stage liver disease at 200 mg/kg, po bid. Further details: dose 200 mg/kg, route oral. The settings on record: in vivo.
Data set [6] is described as follows: AUC (0 to infinity) in liver transplant patient with end-stage liver disease at 200 mg/kg, po bid. Further details: time infinity, dose 200 mg/kg, route oral. The settings on record: human, in vivo.
Data set [7] in a line: Mean residence time in liver transplant patient with end-stage liver disease at 200 mg/kg, po bid. Further details: dose 200 mg/kg, route oral. The settings on record: human, in vivo.
Data set [8] can be described thus: Terminal half life in liver transplant patient with end-stage liver disease at 200 mg/kg, po bid. The conditions noted are these: human, in vivo, read-out: beta t1/2 (converted). Further details: dose 200 mg/kg, route oral.
Data set [9] in a line: Volume of distribution at steady state with respect to bioavailability in liver transplant patient with end-stage liver disease at 200 mg/kg, po bid. The settings on record: human, in vivo, read-out: Vc/F.
The subject of data set [10] is Homo sapiens. Kind of data set: AUMC (0 to infinity) in liver transplant patient with end-stage liver disease at 200 mg/kg, po bid. Further details: dose 200 mg/kg, route oral. The conditions noted are these: in vivo.

For the molecule `C[C@@H](c1ncncc1F)[C@](O)(Cn1cncn1)c1ccc(F)cc1F` [VORICONAZOLE], in data set [1], the time to peak (Tmax) (commonly the time from dosing to the highest level) is 1.8 h. The k el in [2] was 1.67e-05 s⁻¹. The molecule also returned a Clast in the data set with Homo sapiens [3] of 1600 ng/mL. The Cmax (in general, the maximum level reached in the sampled fluid or tissue) in [4] stood at 2900 ng/mL. This molecule gave a Cp in the data set with Homo sapiens [5] of 1000 ng/mL. Also, in [6], the area under the curve AUC(0-inf) (usually total exposure, with the tail of the curve extrapolated) was 25900 ng·h/mL. For the same molecule, in data set [7], the MRT (as a rule, the average time that molecules of a dose stay in the body) was 78.2 h. Further, the half-life in [8] was 15 h. Further, the Vd/F in [9] came to 94.5 L. In the data set with Homo sapiens [10], this molecule displayed an AUMC of 2557.5 hr.hr.ug/ml.
